In patent publication US7893196B2, “Polypeptides having antimicrobial activity and polynucleotides encoding same” (Novozymes Aderium Biotech A/S, priority 2004, dated 2011):

Key:
Format in all cases: cell-based
[1] = system: B. subtilis ATCC 6633; assay: Radial diffusion assay; conditions: up-concentrated S. cerevisiae supernatants
Procedure: (§1) The supernatants described above in Example 10 were analyzed in a radial diffusion assay following a previously published protocol for detection of antimicrobial activity (Lehrer et al. (1991), Ultra sensitive assays for endogenous antimicrobial polypeptides, J Immunol Methods 137: 167-173). Target bacteria (10^6 colony forming units (CFU)) were added to 10 ml of underlay agarose (1% low electro-endosmosis agarose, 0.03% Trypticase soy broth, 10 mM sodium phosphate, pH 7.4, 37 degrees Celsius). Suspension was solidified on an INTEGRID Petri Dish (Becton Dickinson Labware, NJ). A 3 mm Gel Puncher was used to make holes in the underlay agarose (Amersham Pharmacia Biotech, Sweden). Samples were added to the holes and incubated at 37 degrees Celsius, 3 hours. An overlay was poured on top and the plate was incubated overnight (LB media, 7.5% Agar). Antimicrobial activity was seen as bacterial clearing zones around the wells. Living cells was counterstained by adding 10 ml, 0.2 mM MTT (3-(4,5-Dimethylthiazol-2-yl)-2,5-diphenyltetrazolium bromide Thiazolyl blue). All standard protocols has been described elsewhere (Sambrook, Fritsch, and Maniatis, 1989).
(§2) The results in Table 2 show zones of inhibition of up-concentrated samples against three ATCC strains.

[2] = system: M. luteus ATCC 9341; assay: Radial diffusion assay; conditions: up-concentrated S. cerevisiae supernatants
Procedure: as §1, §2

[3] = system: S. carnosus ATCC 51365; assay: Radial diffusion assay; conditions: up-concentrated S. cerevisiae supernatants
Procedure: as §1, §2

[4] = system: Streptococcus pneumoniae, ATCC 49619; assay: MIC microdilution assay (NCCLS/CLSI); conditions: tested 0.06-32 μg/ml
Procedure: (§3) Purified Oystrisin and Piceasin were evaluated for antimicrobial activity in a microdillution assay. The Minimal Inhibitory Concentration (MIC) was determined following the NCCLS/CLSI guidelines from CLSI (Clinical and Laboratory Standards Institute).
(§4) Oystrisin and Piceasin were tested at the following concentrations: 32; 16; 8; 4; 2; 1; 0.50; 0.25; 0.13; and 0.06 μg/ml.

[5] = system: Staphylococcus carnosus, ATCC 51365; assay: MIC microdilution assay (NCCLS/CLSI); conditions: tested 0.06-32 μg/ml
Procedure: as §3, §4

[6] = system: Staphylococcus aureus, ATCC 29213 (MSSA); assay: MIC microdilution assay (NCCLS/CLSI); conditions: tested 0.06-32 μg/ml
Procedure: as §3, §4

[7] = system: Staphylococcus aureus, ATCC 43300 (MRSA); assay: MIC microdilution assay (NCCLS/CLSI); conditions: tested 0.06-32 μg/ml
Procedure: as §3, §4

[8] = system: Staphylococcus epidermidis, ATCC 12228; assay: MIC microdilution assay (NCCLS/CLSI); conditions: tested 0.06-32 μg/ml
Procedure: as §3, §4

[9] = system: Streptococcus pyogenes, ATCC 12344; assay: MIC microdilution assay (NCCLS/CLSI); conditions: tested 0.06-32 μg/ml
Procedure: as §3, §4

| Substance | zones of inhibition [1] | zones of inhibition [2] | zones of inhibition [3] | MIC [4] | MIC [5] | MIC [6] | MIC [7] | MIC [8] | MIC [9] |
| --- | --- | --- | --- | --- | --- | --- | --- | --- | --- |
| Gibbosin: the polypeptide shown as amino acids 1 to 38 of SEQ ID NO:6; Mesobuthus gibbosus defensin (MKTIVLLFVLALVFCTLEMGMVEAGFGCPFNQGRCHRH; listed as Mesobuthus gibbosus) | 8 mm | 6 mm | 9 mm | – | – | – | – | – | – |
| Oystrisin: the polypeptide shown as amino acids 1 to 43 of SEQ ID NO:8; Crassostrea gigas defensin (MKVFVLLTLAVLLMVSADMAFAGFGCPGNQLKCNNHCKSISCR; Crassostrea gigas) | – | – | – | 0.13 µg/mL | 0.5 µg/mL | 32 µg/mL | 16 µg/mL | 32 µg/mL | 0.03 µg/mL |
| Piceasin: the polypeptide shown as amino acids 1 to 40 of SEQ ID NO:2; Picea glauca defensin (MKFTISIIAALAFFAQGIVAAPAPIPEAAAVAAPEAEPKA; listed as Picea glauca) | – | – | – | 16 µg/mL | 16 µg/mL | >32 µg/mL | >32 µg/mL | >32 µg/mL | 1 µg/mL |
| Virgisin-1: the polypeptide shown as amino acids 1 to 40 of SEQ ID NO:4; Crassostrea virginica defensin (MKVFVLLTIAVMLMVSADVALAGFGCPLNRYQCHSHCQSI; listed as Crassostrea virginica) | 6 mm | 5 mm | 7 mm | – | – | – | – | – | – |
| Virgisin-2: the polypeptide shown as amino acids 1 to 42 of SEQ ID NO:10; Crassostrea virginica defensin (MKVFVLLTIAVMLLVSADVATADNGCPRRPRICHNRCIYKGR; listed as Crassostrea virginica) | 5 mm | 0 mm | 8 mm | – | – | – | – | – | – |
